What was measured:
[1] = molecular target: T1, MKK4 (Homo sapiens, UniProt P45985); test: KINOMEscan competition binding assay, MKK4; conditions: residual percent of control binding (PoC) at 100 nM
T1 construct: S84/D399; host or cells: HEK-293
T1 sequence (P45985 84-399): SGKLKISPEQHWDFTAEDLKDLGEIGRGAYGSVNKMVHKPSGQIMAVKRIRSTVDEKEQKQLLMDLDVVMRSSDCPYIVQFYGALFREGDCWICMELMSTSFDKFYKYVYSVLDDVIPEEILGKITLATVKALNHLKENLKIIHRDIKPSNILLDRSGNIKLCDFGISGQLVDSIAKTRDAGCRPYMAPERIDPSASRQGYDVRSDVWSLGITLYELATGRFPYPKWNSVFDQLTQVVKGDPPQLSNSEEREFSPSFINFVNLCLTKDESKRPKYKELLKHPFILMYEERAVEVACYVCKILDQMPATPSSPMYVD
In short: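 Tested at 100 nM and reported as percent of control binding (PoC). MKK4 was produced in HEK-293 cells and DNA-tagged. Displacement from ligand-coated, blocked beads was read by qPCR of eluted kinase.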

[2] = molecular target: T2, BRaf (Homo sapiens, UniProt P15056); test: 33PanQinase enzyme assay, BRaf; assay type: biochemical; conditions: ratio IC50(BRaf)/IC50(MKK4)
T2 construct: purchased ProQinase GmbH, Freiburg, Germany (33PanQinase Assay Service)
In short: (§1)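 33Pi incorporation, read by microplate scintillation counting, measured kinase activity after 60 min at 30 °C. Reactions were quenched with 2% (v/v) H3PO4 and washed with 0.9% NaCl. IC50 derived by least-squares fitting; single doses reported as % residual activity.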

[3] = molecular target: T3, MKK7 (Homo sapiens, UniProt O14733); test: KINOMEscan competition binding assay, MKK7; design: M1/R419; host or cells: HEK-293; conditions: ratio PoC (off-target)/PoC (MKK4)
T3 sequence (O14733 1-419): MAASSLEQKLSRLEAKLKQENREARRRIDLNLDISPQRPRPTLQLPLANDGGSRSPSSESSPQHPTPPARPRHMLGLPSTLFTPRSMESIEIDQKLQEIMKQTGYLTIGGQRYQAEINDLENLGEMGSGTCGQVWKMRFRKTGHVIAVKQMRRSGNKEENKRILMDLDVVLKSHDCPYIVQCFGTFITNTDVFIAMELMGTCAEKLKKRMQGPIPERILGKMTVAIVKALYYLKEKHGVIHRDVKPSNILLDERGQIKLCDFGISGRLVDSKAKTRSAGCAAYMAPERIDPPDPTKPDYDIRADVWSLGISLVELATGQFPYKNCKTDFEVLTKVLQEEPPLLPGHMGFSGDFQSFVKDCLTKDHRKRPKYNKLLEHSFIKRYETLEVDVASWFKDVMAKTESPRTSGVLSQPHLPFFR
In short: (§2)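 DNA-tagged kinases expressed in HEK-293 cells compete between immobilized ligand on blocked beads and test compound at 100 nM; kinase retained on beads quantified by qPCR of the tag.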

[4] = molecular target: T4, JNK1 (Homo sapiens, UniProt P45983); test: 33PanQinase enzyme assay, JNK1; assay type: biochemical; design: purchased ProQinase GmbH, Freiburg, Germany (33PanQinase Assay Service); conditions: ratio IC50(JNK1)/IC50(MKK4)
In short: as §1
Target sequence in this assay (P45983 whole entry): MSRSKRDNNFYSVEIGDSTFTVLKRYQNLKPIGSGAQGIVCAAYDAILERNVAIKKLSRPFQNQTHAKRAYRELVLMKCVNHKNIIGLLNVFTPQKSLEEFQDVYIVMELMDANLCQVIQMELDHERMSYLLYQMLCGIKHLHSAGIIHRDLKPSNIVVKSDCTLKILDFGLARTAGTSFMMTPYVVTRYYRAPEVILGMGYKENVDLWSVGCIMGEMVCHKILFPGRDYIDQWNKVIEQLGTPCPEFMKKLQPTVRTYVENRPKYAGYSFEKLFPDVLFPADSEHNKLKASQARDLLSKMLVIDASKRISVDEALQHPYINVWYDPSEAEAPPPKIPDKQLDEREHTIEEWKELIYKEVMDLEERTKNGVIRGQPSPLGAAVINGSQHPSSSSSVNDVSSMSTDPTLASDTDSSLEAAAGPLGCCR

[5] = molecular target: T4, JNK1; test: KINOMEscan competition binding assay, JNK1; design: M1/Q384; host or cells: HEK-293; conditions: ratio PoC (off-target)/PoC (MKK4)
In short: as §2
Target sequence in this assay (P45983 1-384 isoform P45983-2): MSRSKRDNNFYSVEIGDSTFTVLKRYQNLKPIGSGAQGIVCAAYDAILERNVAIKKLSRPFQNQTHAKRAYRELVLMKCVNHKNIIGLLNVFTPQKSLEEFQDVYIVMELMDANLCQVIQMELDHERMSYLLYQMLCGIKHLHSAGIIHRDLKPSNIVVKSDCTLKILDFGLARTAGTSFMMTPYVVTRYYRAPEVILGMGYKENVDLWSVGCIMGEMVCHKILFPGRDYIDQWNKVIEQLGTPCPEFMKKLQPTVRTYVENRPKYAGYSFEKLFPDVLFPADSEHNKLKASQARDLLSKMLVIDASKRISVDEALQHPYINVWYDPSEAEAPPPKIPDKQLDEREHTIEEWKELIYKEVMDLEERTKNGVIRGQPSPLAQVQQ

[6] = molecular target: T5, MKK4 (Homo sapiens, UniProt P45985); test: 33PanQinase enzyme assay, MKK4; assay type: biochemical; conditions: assay 'IC50'; read-out: Potency MKK4 (IC50)
T5 construct: purchased ProQinase GmbH, Freiburg, Germany (33PanQinase Assay Service)
T5 sequence (P45985 1-399): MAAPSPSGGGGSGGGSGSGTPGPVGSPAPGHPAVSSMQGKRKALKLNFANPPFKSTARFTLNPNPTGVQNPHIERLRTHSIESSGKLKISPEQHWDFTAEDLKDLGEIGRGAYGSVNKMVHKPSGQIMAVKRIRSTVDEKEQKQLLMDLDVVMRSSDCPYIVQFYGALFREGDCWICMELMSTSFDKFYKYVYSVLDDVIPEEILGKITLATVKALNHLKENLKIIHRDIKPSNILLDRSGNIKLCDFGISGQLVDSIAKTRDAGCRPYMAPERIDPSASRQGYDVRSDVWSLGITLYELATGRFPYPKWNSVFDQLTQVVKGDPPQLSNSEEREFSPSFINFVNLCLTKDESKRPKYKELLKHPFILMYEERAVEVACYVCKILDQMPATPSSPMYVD
In short: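 Inhibition measured as 33Pi transfer to substrate after a 60-min, 30 °C reaction, acid-stopped and scintillation-counted.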

[7] = molecular target: T2, BRaf; test: KINOMEscan competition binding assay, BRaf; conditions: ratio PoC (off-target)/PoC (MKK4)
In short: as §2

[8] = molecular target: T3, MKK7; test: 33PanQinase enzyme assay, MKK7; assay type: biochemical; design: purchased ProQinase GmbH, Freiburg, Germany (33PanQinase Assay Service); conditions: ratio IC50(MKK7)/IC50(MKK4)
In short: as §1

T2 sequence (P15056 whole entry, species assumed): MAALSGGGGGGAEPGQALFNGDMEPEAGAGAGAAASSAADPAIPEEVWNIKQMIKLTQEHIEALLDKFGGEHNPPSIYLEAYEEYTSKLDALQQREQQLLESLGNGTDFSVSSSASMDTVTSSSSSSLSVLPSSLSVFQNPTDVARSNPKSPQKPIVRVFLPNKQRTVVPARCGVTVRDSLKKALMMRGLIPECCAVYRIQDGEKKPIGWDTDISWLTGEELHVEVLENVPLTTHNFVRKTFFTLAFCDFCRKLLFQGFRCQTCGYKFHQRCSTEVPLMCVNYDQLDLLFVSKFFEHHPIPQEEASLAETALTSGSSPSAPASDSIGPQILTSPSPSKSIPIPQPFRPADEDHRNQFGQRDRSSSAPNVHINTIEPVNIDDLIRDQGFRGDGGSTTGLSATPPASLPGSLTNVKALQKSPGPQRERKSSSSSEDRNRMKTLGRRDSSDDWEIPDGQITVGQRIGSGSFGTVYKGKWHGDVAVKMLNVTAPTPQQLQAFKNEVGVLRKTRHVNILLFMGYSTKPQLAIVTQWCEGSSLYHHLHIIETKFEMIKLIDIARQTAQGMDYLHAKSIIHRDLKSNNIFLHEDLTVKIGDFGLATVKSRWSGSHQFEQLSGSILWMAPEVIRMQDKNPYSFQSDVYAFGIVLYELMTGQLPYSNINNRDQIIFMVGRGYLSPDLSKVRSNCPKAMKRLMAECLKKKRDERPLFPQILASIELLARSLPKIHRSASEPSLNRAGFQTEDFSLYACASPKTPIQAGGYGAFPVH

| Structure (SMILES) | MKK4 [% Ctrl @ 100 nM [1] | Selectivity Braf, IC50(off-target)/IC50(MKK4) [2] | selectivity based on % Ctrl @100 nM vs. MKK7 [3] | Selectivity JNK1, IC50(off-target)/IC50(MKK4) [4] | selectivity based on % Ctrl @100 nM vs. JNK1 [5] | IC50 [6] [nM] | selectivity based on % Ctrl @100 nM vs. Braf [7] | Selectivity IVIKK7, IC50(off-target)/IC50(MKK4) [8] |
| --- | --- | --- | --- | --- | --- | --- | --- | --- |
| CCCS(=O)(=O)Nc1c(F)ccc(C(=O)c2c[nH]c3ncc(-c4cnc(C(F)(F)F)nc4)cc23)c1F [Example 184, N-(2,6-difluoro-3-(5-(2-(trifluoromethyl)pyrimidin-5-yl)-1H-pyrrolo[2,3-b]pyridine-3-carbonyl)phenyl)propane-1-sulfonamide] | +++ (PoC < 1) | +++ (IC50(off-target)/IC50(MKK4) > 100) | +++ (Ratio > 100) | ++ (100 ≥ IC50(off-target)/IC50(MKK4) > 10) | +++ (Ratio > 100) | 100 to 1000 | +++ (Ratio > 100) | +++ (IC50(off-target)/IC50(MKK4) > 100) |
| CCCS(=O)(=O)Nc1c(F)ccc(C(=O)c2c[nH]c3ncc(-c4cnc(Cl)cn4)cc23)c1F [Example 211, N-(3-(5-(5-chloropyrazin-2-yl)-1H-pyrrolo[2,3-b]pyridine-3-carbonyl)-2,6-difluorophenyl)propane-1-sulfonamide] | +++ (PoC < 1) | +++ (IC50(off-target)/IC50(MKK4) > 100) | +++ (Ratio > 100) | ++ (100 ≥ IC50(off-target)/IC50(MKK4) > 10) | +++ (Ratio > 100) | 100 to 1000 | +++ (Ratio > 100) | +++ (IC50(off-target)/IC50(MKK4) > 100) |
| CCCS(=O)(=O)Nc1c(F)ccc(C(=O)c2c[nH]c3ncc(-c4ccc(C)nc4)cc23)c1F [Example 229, N-(2,6-difluoro-3-(5-(6-methylpyridin-3-yl)-1H-pyrrolo[2,3-b]pyridine-3-carbonyl)phenyl)propane-1-sulfonamide] | +++ (PoC < 1) | +++ (IC50(off-target)/IC50(MKK4) > 100) | +++ (Ratio > 100) | +++ (IC50(off-target)/IC50(MKK4) > 100) | +++ (Ratio > 100) | < 100 | +++ (Ratio > 100) | +++ (IC50(off-target)/IC50(MKK4) > 100) |
| CCCS(=O)(=O)Nc1c(F)ccc(C(=O)c2c[nH]c3ncc(-c4ccc(C(F)(F)F)nc4)cc23)c1F [Example 230, N-(2,6-difluoro-3-(5-(6-(trifluoromethyl)pyridin-3-yl)-1H-pyrrolo[2,3-b]pyridine-3-carbonyl)phenyl)propane-1-sulfonamide] | +++ (PoC < 1) | +++ (IC50(off-target)/IC50(MKK4) > 100) | +++ (Ratio > 100) | +++ (IC50(off-target)/IC50(MKK4) > 100) | +++ (Ratio > 100) | < 100 | +++ (Ratio > 100) | +++ (IC50(off-target)/IC50(MKK4) > 100) |

Source: US11912701B2, “Protein kinase inhibitors for promoting liver regeneration or reducing or preventing hepatocyte death” (HEPAREGENIX GMBH, priority 2018, dated 2024)
